Experimental data taken from article PMC10354055, “An optimized Nurr1 agonist provides disease-modifying effects in Parkinson’s disease models” (Nature Communications, 2023).
“And” between values parts separate entries of the source, which are not always exact repeats. Equal entries are not always repeated. Where two headings read alike, the source gives them in different places.

What was measured:
[1] = system: AAV-αSyn-induced male mice; experiment: Pole test, AAV-αSyn-induced PD model mice; format: in vivo, mouse; settings: αSynWT and αSynA53T mice; CQ 40, 4A7C-301 5 mg/kg/day i.p.
Text: Adeno-associated viruses (AAVs) expressing GFP only or αSyn (wild-type or A53T) were kindly provided by Dr. Yoon Seong Kim from the University of Central Florida. Recombinant AAV vectors were produced using modified pAAV-IRES-hrGFP (Agilent) to express wild-type and mutant human αSyn under control of the CMV promoter. Viral particles (AAV2) were produced at the University of Iowa Viral Vector Core according to standard operating procedures (https://medicine.uiowa.edu/vectorcore/). […] AAV vectors were delivered into the substantia nigra unilaterally by stereotaxic surgery.
Mice were trained to descend a vertical metal rod wrapped with rough tape (80 cm high, 12 mm diameter) once per day for 2 days, and then the baseline was measured before the pole test (3 days before the MPTP injection or the first pole test at week 2). Mice were placed head-upward on the pole and total descent time was recorded.

N27-A cells [2] = settings: for LDH release (%): Fig. 2b, MPP+, CQ 100 µM, 4A7C-301 1 µM
Protocol: SK-N-BE(2)C human neuroblastoma, BV2 mouse microglia (ATCC), HeLa and MN9D cell lines were cultured in Dulbecco’s Modified Eagle Medium (DMEM) supplemented with 10% fetal bovine serum (FBS) and 100 U /ml penicillin and 100 μg /ml streptomycin. The murine MN9D dopaminergic cell line was kindly provided by Drs. Michael Zigmond and Juliann Jaumotte from the University of Pittsburgh. The N27-A rat dopaminergic cell line was kindly provided by Dr. Curt Freed from the University of Colorado School of Medicine. […] For transactivity assay, SK-N-BE(2)C and N27-A cell lines were transfected with pCMV-fNurr1, pGAL-Nurr1(LBD), pGAL-Nor1(LBD) or pGAL-Nur77(LBD) and reporter construct (p4xNL3-Luc for fNurr1 or p8xUAS-Luc for LBD constructs). pRSV-β-gal was co-transfected as an internal control. Cells were lysed in a lysis buffer (25 mM Tris-phosphate (pH 7.8), 2 mM DTT, 2 mM DCTA (1,2-diaminocyclohexane-N,N,N′,N′-tetraacetic acid), 10% glycerol, and 1% Triton X-100) 24 h after transfection, followed by adding firefly luciferase substrate for luminescence detection measured by a luminometer plate reader (SpectraMax®; Molecular device). Nurr1 transactivity was normalized to β-galactosidase activity. […] For Nurr1 stability determination, MN9D cells were incubated with MPP^+ (0.5 mM) for 2, 4, 8, 16, 24, and 32 h, or were transduced with lentivirus expressing GFP only or αSyn (wild-type or A53T) then harvested 24, 48 and 72 h after transduction. For autophagolysosome (APL) formation assay, HeLa and N27-A cells were transfected with mRFP-GFP-LC3 (Addgene) using Lipofectamine 2000 (Invitrogen). The medium was changed with starvation medium (Earle’s Balanced Salt Solution; EBSS) 24 h after transfection for autophagy induction.
Cells were transfected with Nurr1 subcloned into pcDNA3.1 vector[23] for Nurr1 overexpression (OE). […] Nurr1 OE or KD by transfection was analyzed by Western blot.
Cellular oxidative stress was detected using the DCFDA Cellular ROS Assay Kit (Abcam) according to the manufacturer’s protocol. Briefly, cells seeded in black clear bottom 96 well plate were stained with DCFDA solution (20 µM) for 45 min at 37 °C. […] Cytotoxicity was determined by measuring lactate dehydrogenase (LDH) release into the culture medium using a LDH cytotoxicity detection kit (Roche)[33]. Absorbance was measured at 490 nm with a microplate reader and cytotoxicity was calculated as a percentage (%) relative to 1% TritonX-100 control. Cell viability was determined using 3-(4,5-dimethylthiazol-2-yl)-2,5-diphenyltetrazolium bromide (MTT) as previously described. Briefly, cells were incubated with 5 mg/ml of MTT (Sigma-Aldrich) solution for 3.5 h at 37 °C. MTT formazan crystals were dissolved in 10 times the volume of MTT solvent (4 mM HCl and 0.1% Nonidet P-40 in isopropanol) and the absorbance from the generated blue formazan was measured at 570 nm after 15 min incubation at room temperature. Cell viability was calculated as a percentage (%) of MTT reduction relative to vehicle control.

N27-A cells [3] = experiment: Mitochondrial activity assay, Seahorse XFp, N27-A cells; format: cell-based, rat; parameters: Seahorse time trace (OCR): unit not given here; settings: for OCR changes after FCCP injection: MPP+ co-treatment, individual replicates (Supplementary Figure S1o); for Seahorse time trace (OCR) / Basal respiration / Maximal respiration / ATP turnover: replicates; for Basal respiration: Fig. S1l; for Basal respiration / Maximal respiration / ATP turnover: with MPP+; for Maximal respiration: Fig. S1m; for ATP turnover: Fig. S1n
Protocol: Mitochondrial activity was measured using the Seahorse XFp analyzer (Agilent Technologies) according to the manufacturer’s instruction. Briefly, cells were plated onto wells of a XFp cell culture miniplate and incubated in a 37 °C incubator overnight. The assay was performed after cells were equilibrated for 1 h in XF assay medium supplemented with 10 mM D-glucose, 5 mM sodium pyruvate, and 2 mM glutamax in a non-CO2 incubator. Mitochondrial activity was monitored through sequential injections of 1 μM oligomycin, 2 μM carbonyl cyanide-4 (trifluoromethoxy) phenylhydrazone (FCCP) and 0.5 μM rotenone/antimycin A to calculate basal respiration (= baseline oxygen consumption rate (OCR)−rotenone/antimycin A OCR), maximal respiration (= FCCP OCR−rotenone/antimycin A OCR), ATP turnover (= baseline OCR−oligomycin OCR), and OCR changes after FCCP injection (= FCCP OCR−oligomycin OCR). Each plotted value was normalized to total protein quantified using a Bradford protein assay (Bio-Rad) and analyzed using the Seahorse WAVE Desktop software (Agilent Technologies).

## CCN1CCN(c2cc(N3CCN(CC)CC3)nc(NCCNc3ccnc4cc(Cl)ccc34)n2)CC1 [4A7C-301, N^1-(4,6-bis(4-ethylpiperazin-1-yl)pyrimidin-2-yl)-N^2-(7-chloroquinolin-4-yl)ethane-1,2-diamine]
[1]
  motor deficits, pole test (in words): improved motor deficits
N27-A cells [2]; Control
  LDH release (%): 36.8915% and 36.4082% and 36.6047% and 36.8443%
N27-A cells [2]; Nurr1 KD
  LDH release (%): 55.7866% and 55.7395% and 55.4251% and 55.8102%
N27-A cells [2]; Nurr1 OE
  LDH release (%): 22.7388% and 23.725% and 22.6956% and 22.8802%
N27-A cells [2]; N27-A and MN9D cells, dose-dependent
  MPP+-induced cytotoxicity (in words): significantly decreased
N27-A cells [2]; N27-A cells, MPP+-induced cytotoxicity
  concentration of maximal efficiency, times lower than CQ: ~ 20 times
N27-A cells [3]; CQ 100 µM, 4A7C-301 1 µM
  OXPHOS capacity reduced by MPP+ (in words): efficiently restored
N27-A cells [3]; Control N27-A cells
  OCR changes after FCCP injection: 22.93 pmol/min/µg protein and 28.37 pmol/min/µg protein and 27.04 pmol/min/µg protein and 22.31 pmol/min/µg protein
N27-A cells [3]; Fig. S1j/k, Control + MPP+, time 2 min
  Seahorse time trace (OCR): 28.88 and 28.2 and 18.44 and 14.94
N27-A cells [3]; Fig. S1j/k, Control + MPP+, time 8 min
  Seahorse time trace (OCR): 28.86 and 28.61 and 14.72 and 11.2
N27-A cells [3]; Fig. S1j/k, Control + MPP+, time 15 min
  Seahorse time trace (OCR): 28.17 and 28.8 and 13.75 and 10.54
N27-A cells [3]; Fig. S1j/k, Control + MPP+, time 21 min
  Seahorse time trace (OCR): 9.43 and 9.81 and 3.69 and 2.8
N27-A cells [3]; Fig. S1j/k, Control + MPP+, time 28 min
  Seahorse time trace (OCR): 9.7 and 9.86 and 4.4 and 3.39
N27-A cells [3]; Fig. S1j/k, Control + MPP+, time 34 min
  Seahorse time trace (OCR): 9.59 and 9.6 and 4.42 and 3.28
N27-A cells [3]; Fig. S1j/k, Control + MPP+, time 41 min
  Seahorse time trace (OCR): 32.36 and 38.18 and 30.73 and 25.11
N27-A cells [3]; Fig. S1j/k, Control + MPP+, time 47 min
  Seahorse time trace (OCR): 29.9 and 35.04 and 27.29 and 22.64
N27-A cells [3]; Fig. S1j/k, Control + MPP+, time 54 min
  Seahorse time trace (OCR): 29.63 and 34.46 and 27.32 and 22.95
N27-A cells [3]; Fig. S1j/k, Control + MPP+, time 61 min
  Seahorse time trace (OCR): 9.52 and 9.47 and 4.93 and 3.5
N27-A cells [3]; Fig. S1j/k, Control + MPP+, time 67 min
  Seahorse time trace (OCR): 9.83 (2×) and 4.57 and 3.36
N27-A cells [3]; Fig. S1j/k, Control + MPP+, time 74 min
  Seahorse time trace (OCR): 9.8 and 10.29 and 4.41 and 3.28
N27-A cells [3]; Fig. S1j, Nurr1 OE + MPP+, time 2 min
  Seahorse time trace (OCR): 21.96 and 38.12 and 34.89 and 26.1
N27-A cells [3]; Fig. S1j, Nurr1 OE + MPP+, time 8 min
  Seahorse time trace (OCR): 20.5 and 33.32 and 33.36 and 24.15
N27-A cells [3]; Fig. S1j, Nurr1 OE + MPP+, time 15 min
  Seahorse time trace (OCR): 22.25 and 31.43 and 31.49 and 19.26
N27-A cells [3]; Fig. S1j, Nurr1 OE + MPP+, time 21 min
  Seahorse time trace (OCR): 7.36 and 10.03 and 6.69 and 7.02
N27-A cells [3]; Fig. S1j, Nurr1 OE + MPP+, time 28 min
  Seahorse time trace (OCR): 8.04 and 9.23 and 7.6 and 8.44
N27-A cells [3]; Fig. S1j, Nurr1 OE + MPP+, time 34 min
  Seahorse time trace (OCR): 7.79 and 8.85 and 8.38 and 8.58
N27-A cells [3]; Fig. S1j, Nurr1 OE + MPP+, time 41 min
  Seahorse time trace (OCR): 58.47 and 42.11 and 44.82 and 40.84
N27-A cells [3]; Fig. S1j, Nurr1 OE + MPP+, time 47 min
  Seahorse time trace (OCR): 58.99 and 40.77 and 43.63 and 37.36
N27-A cells [3]; Fig. S1j, Nurr1 OE + MPP+, time 54 min
  Seahorse time trace (OCR): 57.85 and 39.58 and 42.17 and 36.47
N27-A cells [3]; Fig. S1j, Nurr1 OE + MPP+, time 61 min
  Seahorse time trace (OCR): 7.42 and 11.41 and 5.09 and 5.68
N27-A cells [3]; Fig. S1j, Nurr1 OE + MPP+, time 67 min
  Seahorse time trace (OCR): 7.08 and 11.69 and 6.18 and 6.3
N27-A cells [3]; Fig. S1j, Nurr1 OE + MPP+, time 74 min
  Seahorse time trace (OCR): 8.5 and 11.39 and 6.45 and 6.32
N27-A cells [3]; Fig. S1k, Nurr1 KD + MPP+, time 2 min
  Seahorse time trace (OCR): 9.8 and 10.5 and 12.93 and 13.97
N27-A cells [3]; Control cells
  Basal respiration: 19.37 pmol/min/µg protein and 19.34 pmol/min/µg protein and 12.02 pmol/min/µg protein and 10.67 pmol/min/µg protein
  Maximal respiration: 22.85 pmol/min/µg protein and 28.71 pmol/min/µg protein and 26.31 pmol/min/µg protein and 21.83 pmol/min/µg protein
  ATP turnover: 19.25 pmol/min/µg protein and 18 pmol/min/µg protein and 12.75 pmol/min/µg protein and 12.14 pmol/min/µg protein
N27-A cells [3]; Nurr1 KD cells
  Basal respiration: 6.31 pmol/min/µg protein and 5.78 pmol/min/µg protein and 7.24 pmol/min/µg protein and 8.35 pmol/min/µg protein
  Maximal respiration: 28.48 pmol/min/µg protein and 29.74 pmol/min/µg protein and 27.18 pmol/min/µg protein and 19.97 pmol/min/µg protein
  ATP turnover: 5.27 pmol/min/µg protein and 5.05 pmol/min/µg protein and 6.03 pmol/min/µg protein and 7.23 pmol/min/µg protein
N27-A cells [3]; Nurr1 OE cells
  Basal respiration: 19.17 pmol/min/µg protein and 26.73 pmol/min/µg protein and 28.79 pmol/min/µg protein and 22.43 pmol/min/µg protein
  Maximal respiration: 51.91 pmol/min/µg protein and 33.72 pmol/min/µg protein and 39.72 pmol/min/µg protein and 35.16 pmol/min/µg protein
  ATP turnover: 17.88 pmol/min/µg protein and 29.57 pmol/min/µg protein and 28.2 pmol/min/µg protein and 20.09 pmol/min/µg protein
N27-A cells [3]; Nurr1 KD N27-A cells
  OCR changes after FCCP injection: 27.63 pmol/min/µg protein and 29.1 pmol/min/µg protein and 27.24 pmol/min/µg protein and 20.05 pmol/min/µg protein
N27-A cells [3]; Nurr1 OE N27-A cells
  OCR changes after FCCP injection: 50.72 pmol/min/µg protein and 34.26 pmol/min/µg protein and 38.13 pmol/min/µg protein and 33.82 pmol/min/µg protein
